Measured values published in patent US11213527B2, “Inhibitory effect of low molecular weight compound on cancer and fibrosis” (NATIONAL UNIVERSITY CORPORATION TOTTORI UNIVERSITY, priority 2014, dated 2022).

Tests used:
[1] = tested on: HuH7 cells (a liver cancer cell line); assay: Inhibitory effect on cancer cells (WST assay); assay type: cell-based; settings: 0-50 μM; 4 days (concentration-dependent) or 0, 1, 2, 4 days (time-dependent); DMSO control
Method: HuH7 cells (a liver cancer cell line) were cultured in a DMEM on a 10-cm cell culture dish (TPP Techno Plastic Products AG, Trasadingen, Switzerland) at 5% CO2, 37° C., and a humidity of 100%. After the cells were grown to 70 to 90% confluency, 200 μL of a Trypsin/EDTA solution was added thereto to detach the cells. The cells were centrifuged at 1000 rpm for 5 min at room temperature for recovery. Then, the cells in one dish were divided into four dishes and subcultured.
When a concentration-dependent anti-tumor effect was examined, HuH7 cells at 70 to 90% confluency were collected, and 1×10^4 cells were seeded in each well of a 96-well plate (FALCON). When a time-dependent anti-tumor effect was examined, 5×10^3 cells were seeded. Twenty-four hours after the seeding, the cells were treated with IC-2, PN3-13, or HC-1, and further incubated at 37° C. DMSO was used as a control.
The concentration of each low-molecular-weight compound was provided below. […] After that, absorbance (at a measurement wavelength of 450 nm/a control wavelength of 600 nm) was measured by a 96-well microplate reader (TECAN, Zurich, Switzerland). The absorbance of cells was calculated by subtracting the absorbance of reagent blank from the measured result, and was then converted to the viable cell count. Also, the IC50 of each low-molecular-weight compound was determined by using an equation: […]

[2] = tested on: Wnt/β-catenin signal; assay: Luciferase assay in liver stellate cells (LX-2); assay type: cell-based, human
Method: A human liver stellate cell line (LX-2 cells) was maintained and cultured in a DMEM containing 10% FBS. The cells used for experiments were suspended in a DMEM containing 1% FBS and plated. The cell density was at about 2.0×10^5 cell/cm^2.
A luciferase assay was used to investigate an inhibitory effect of each low-molecular-weight compound on a Wnt/β-catenin signal. The luciferase assay was conducted under conditions indicated in FIG. 40 and the following sections 9.3.1 to 9.3.2. FIG. 40 illustrates a protocol when the cells were treated with a low-molecular-weight compound+TGFβ. Substantially the same experiment was carried out when the cells were treated with a low-molecular-weight compound alone or a low-molecular-weight compound+Wnt3a. Note that TGFβ or Wnt3a was added so as to increase the intensity of a Wnt/β-catenin signal.
First, 5×Passive Lysis Buffer was diluted 5-fold with MilliQ water. The lysis buffer was added at 100 μl/well and the plate was shaken for 20 min. The lysate was frozen at −30° C. overnight.
The sample frozen a day before, LARII, a Stop&Glo buffer, and a Stop&Glo substrate (materials other than the sample were shaded) were incubated at room temperature for about 1 h. A Stop&Glo solution (49 μl of the Stop&Glo buffer and 1 μl of the Stop&Glo substrate) was prepared for the number of the samples+1. Next, 50 μl of the LARII was dispensed into a 3.5-ml tube. Then, 10 μl of the sample was added and the tube was set in a measurement instrument. After completion of the first assay, 50 μl of the Stop&Glo solution was added and the tube was again set in the measurement instrument for another assay.

[3] = tested on: Wnt/β-catenin signal; settings: induces differentiation of the mesenchymal stem cell into hepatocytes; cited from earlier work

O=C1[C@H](Cc2ccccc2)N2C(=O)CCN(C(=O)NCc3ccccc3)[C@H]2CN1Cc1cccc2ccccc12 [IC-2]
proliferation of HuH7 cells (cell viability) [1]: significantly inhibited proliferation
inhibition of a Wnt/β-catenin signal in the LX-2 cells ([2]; compound alone, 24 hours): resulted in inhibition
inhibition of a Wnt/β-catenin signal in the LX-2 cells ([2]; compound alone, 48 hours): resulted in inhibition
inhibition of a Wnt/β-catenin signal in the LX-2 cells ([2]; compound+TGFβ, 24 hours): resulted in inhibition
inhibition of a Wnt/β-catenin signal in the LX-2 cells ([2]; compound+TGFβ, 48 hours): resulted in inhibition
inhibition of a Wnt/β-catenin signal in the LX-2 cells ([2]; compound+Wnt3a, 24 hours): resulted in inhibition
inhibition of a Wnt/β-catenin signal in a mesenchymal stem cell [3]: inhibit a Wnt/β-catenin signal
